# Measurements from patent US5691155A, “Nucleotide sequences encoding the murine β3-adrenergic receptor and their applications” (priority 1991, dated 1997).
# Entries after “also recorded” stand apart in the source; their conditions may differ. Like-named read-outs stand apart in the source and are kept apart here.
# Assays:
# [1] = molecular target: T1, murine RA-β3 (Mus musculus, UniProt P25962); test: cAMP accumulation in CHO-Muβ3 cells (agonists); assay type: cell-based; conditions: for maximum stimulation of cAMP accumulation: % of that for (-)-isoproterenol; for A.I. (% IPR), intrinsic activity: % of maximum effect of (-)-isoproterenol; for activation of receptor by β1 and β2 antagonists (in words): murine RA-β3; for agonist type (in words): murine RA-β3, CHO-Muβ3
# T1 construct: expressed in transfected cells
# T1 sequence (P25962 1-388): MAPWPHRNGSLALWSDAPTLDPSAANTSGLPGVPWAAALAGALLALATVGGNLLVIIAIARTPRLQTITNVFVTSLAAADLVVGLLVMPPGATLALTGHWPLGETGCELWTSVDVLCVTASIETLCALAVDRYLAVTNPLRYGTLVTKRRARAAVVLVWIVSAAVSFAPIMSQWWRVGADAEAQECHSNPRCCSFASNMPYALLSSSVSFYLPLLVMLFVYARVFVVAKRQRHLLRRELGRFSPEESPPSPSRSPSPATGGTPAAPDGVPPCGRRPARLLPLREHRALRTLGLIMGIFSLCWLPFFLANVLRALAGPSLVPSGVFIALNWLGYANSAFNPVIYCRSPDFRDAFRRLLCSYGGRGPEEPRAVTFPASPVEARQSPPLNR
# Experimental: (§1) a. Test for cAMP Accumulation
# (§2) preconfluent cells such as those described in Example 5 (5×10^5) are incubated at 37° C. for 20 minutes in 0.5 ml of HANKS buffer containing 20 mM HEPES (pH 7.4), 1 mM ascorbic acid, 1 mM isobutylmethylxanthine and various concentrations of agonist.
# (§3) After boiling for 5 min and centrifugation (4000 r.p.m., 10 min, 4° C.), the quantity of cAMP produced is determined using the Amersham cAMP kit.
# To determine the pharmacological profile of murine RA-β3, the coding region of its gene was inserted into an expression vector like that described in Example 5.
# (§4) The Kact values correspond to the agonist concentration giving 50% of the maximum stimulation.
# [2] = molecular target: T2, human RA-β3 (Homo sapiens, UniProt P13945); test: cAMP accumulation in CHO-Huβ3 cells (agonists); assay type: cell-based; conditions: for EC50: CHO-Huβ3, agonist concentration giving 50% of the maximum stimulation, read-out: Kact; for activation of receptor by β1 and β2 antagonists (in words): human RA-β3
# T2 construct: expressed in transfected cells; host or cells: CHO (Chinese Hamster Ovary), CHO-Huβ3
# T2 sequence (P13945 1-402): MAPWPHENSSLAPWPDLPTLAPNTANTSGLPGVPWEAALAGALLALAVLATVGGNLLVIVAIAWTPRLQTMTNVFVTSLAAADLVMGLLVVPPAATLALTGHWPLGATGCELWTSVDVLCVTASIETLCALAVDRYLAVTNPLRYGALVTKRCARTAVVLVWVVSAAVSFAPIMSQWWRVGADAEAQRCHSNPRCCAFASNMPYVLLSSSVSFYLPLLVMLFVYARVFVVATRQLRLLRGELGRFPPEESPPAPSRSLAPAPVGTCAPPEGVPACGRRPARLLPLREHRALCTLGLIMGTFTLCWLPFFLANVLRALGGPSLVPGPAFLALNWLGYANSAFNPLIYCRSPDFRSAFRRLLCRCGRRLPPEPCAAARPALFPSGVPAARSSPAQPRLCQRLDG
# Experimental: In order to be able to directly compare the properties of the murine and human β3-AR receptors, it was decided to express the mouse β3 gene in the CHO (Chinese Hamster Ovary) cell line which has already been used to analyse the human β3-AR receptor (see French Patent Application No. 89 00918).
# as §1, §2, §3, §4
# [3] = molecular target: T2, human RA-β3; test: Inhibition of isoproterenol-induced cAMP accumulation in CHO-Huβ3 cells (antagonists); assay type: cell-based
# [4] = system: RA-β3; conditions: cited from earlier work
# [5] = molecular target: T1, murine RA-β3; test: Inhibition of (-)-isoproterenol-induced cAMP accumulation in CHO-Muβ3 cells (antagonists); assay type: cell-based; conditions: for concentration required to inhibit isoproterenol-induced cAMP accumulation (in words): CHO-Muβ3, 5 nM (-)-isoproterenol; for inhibition of isoproterenol-induced accumulation of cAMP (in words): murine RA-β3
# [6] = molecular target: T1, murine RA-β3; test: Binding of [^125 I]ICYP to saturation, intact CHO-Muβ3 cells; conditions: saturation/Scatchard, mean±SEM, n=3, read-out: dissociation constant
# Experimental: b. Test for the Binding of ICYP
# preconfluent cells such as those described in Example 5 (10^5) are incubated for 1 hour at 37° C. in a HANKS buffer containing 20 mM HEPES (pH 7.4), 1 mM ascorbic acid, 2 μM desipramine, 0.05% bovine serum albumin and 70-7000 pM (-)-[^125 I]ICYP (2000 Ci/mmol, Amersham).
# The incubations are stopped by dilution in cold PBS buffer and the bound ligand is separated from free [^125 I]ICYP by filtration (Whatman GF/C filters impregnated with 0.3% polyethyleneimine).
# The filters are washed 3 times with cold PBS buffer and the radioactivity is measured.
# [7] = system: obese rat cells; conditions: cited from earlier work
# [8] = CHO-Muβ3, agonist concentration giving 50% of the maximum stimulation, read-out: Kact
smiles,measurement,setting,value
C=CCOc1ccccc1OCC(O)CNC(C)C (stereo not shown) [oxprenolol],maximum stimulation of cAMP accumulation,[1]; CHO-Muβ3,45%
same,"A.I. (% IPR), intrinsic activity",[1]; CHO-Muβ3,43.8 ± 6.1%
same,EC50,[1]; [8],535 ± 79.3 nM
same,activation of receptor by β1 and β2 antagonists (in words),[1],can be activated
same,agonist type (in words),[1],behave like partial agonists
same,EC50,[2],76.6 ± 12.6 nM
same,activation of receptor by β1 and β2 antagonists (in words),[2],can be activated
NC[C@H](O)c1ccc(O)c(O)c1 [(-)-noradrenaline],EC50,[1],12.9 ± 4.2 nM
same,stimulation of cAMP accumulation (in words),[1]; CHO-Muβ3,accumulation of cAMP is stimulated
same,Emax,"[1]; read-out: A.I. (% IPR), intrinsic activity",106 ± 5.6%
CC(C)NCC(O)COc1cccc2[nH]ccc12 (stereo not shown) [pindolol],maximum stimulation of cAMP accumulation,[1]; CHO-Muβ3,36%
same,"A.I. (% IPR), intrinsic activity",[1]; CHO-Muβ3,35.1 ± 3.1%
same,EC50,[1]; [8],999 ± 197 nM
same,activation of receptor by β1 and β2 antagonists (in words),[1],can be activated
same,agonist type (in words),[1],behave like partial agonists
same,activation of receptor by β1 and β2 antagonists (in words),[2],can be activated
CC(C)NCC(O)COc1cccc2ccccc12 (stereo not shown) [Propranolol],inhibition of isoproterenol-induced accumulation of cAMP (in words),[3],weak inhibitors
CC(C)(C)NCC(O)COc1cccc2[nH]c(=O)[nH]c12 (stereo not shown) [CGP 12177A],maximum stimulation of cAMP accumulation,[1]; CHO-Muβ3,77%
same,"A.I. (% IPR), intrinsic activity",[1]; CHO-Muβ3,74.9 ± 7.9%
same,activation of receptor by β1 and β2 antagonists (in words),[1],can be activated
same,agonist type (in words),[1],behave like partial agonists
same,EC50,[2],139 ± 44.3 nM
same,activation of receptor by β1 and β2 antagonists (in words),[2],can be activated
same,lipolysis and adenylate cyclase activity (in words),[4],stimulates lipolysis and adenylate cyclase activity
Cn1cc(C(F)(F)F)nc1-c1ccc(OCC(O)CNCCOc2ccc(O)c(C(N)=O)c2)cc1 (stereo not shown) [CGP 20712A],Ki,[5],6420 ± 584 nM
same,concentration required to inhibit isoproterenol-induced cAMP accumulation (in words),[5],micromolar concentrations are required; also recorded: micromolar amounts
same,inhibition of isoproterenol-induced accumulation of cAMP (in words),[5],weak inhibitors
same,inhibition of isoproterenol-induced accumulation of cAMP (in words),[3],weak inhibitors
"CC(C)NCC(O)c1ccc(O)c(O)c1 (single isomer, unassigned; (-)) [(-)-isoproterenol]",maximum concentration of cAMP induced by isoproterenol,[1],500 pmol per million cells
"CNCC(O)c1ccc(O)c(O)c1 (single isomer, unassigned; (-)) [(-)-adrenalin]",stimulation of cAMP accumulation (in words),[1]; CHO-Muβ3,accumulation of cAMP is stimulated
same,"A.I. (% IPR), intrinsic activity",[1]; CHO-Muβ3,90.6 ± 2.9%
same,EC50,[1]; [8],23 ± 0.3 nM
same,EC50,[2],49.2 ± 5.3 nM
"CC(C)(C)NC[C@H](O)COc1cccc2[nH]c(C#N)c([125I])c12 [ICYP, [^125 I]iodocyanopindolol]",Kd,[6],0.88 ± 0.088 nM
C[C@H](Cc1ccc(OCC(=O)O)cc1)NC[C@H](O)c1cccc(Cl)c1 (relative stereo) [BRL 37344],EC50,[1],0.4 ± 0.1 nM
same,stimulation of cAMP accumulation (in words),[1]; CHO-Muβ3,potent agonist effect
same,"A.I. (% IPR), intrinsic activity",[1]; CHO-Muβ3,107.4 ± 8.1%
same,agonist potency in mice compared with human (in words),[1]; murine vs human RA-β3,increased potency
same,"stimulation of cAMP accumulation, of lipolysis and of thermogenesis (in words)",[7],"effectiveness in the stimulation of cAMP accumulation, of lipolysis and of thermogenesis"
Cc1ccc(OCC(O)C(C)NC(C)C)c2c1CCC2 (stereo not shown) [ICI 118551],Ki,[5],4970 ± 137 nM
same,concentration required to inhibit isoproterenol-induced cAMP accumulation (in words),[5],micromolar concentrations are required; also recorded: micromolar amounts
same,inhibition of isoproterenol-induced accumulation of cAMP (in words),[5],weak inhibitors
same,inhibition of isoproterenol-induced accumulation of cAMP (in words),[3],weak inhibitors
